According to paper PMC10318527, “Utilization of dietary mixed-linkage β-glucans by the Firmicute Blautia producta” (The Journal of Biological Chemistry, 2023):
Entries after “also recorded” stand apart in the source; their conditions may differ.

Legend:
[1] = test system: B. producta ΔSBP; experiment: Growth of B. producta ΔSBP mutant on barley β-glucan; format: cell-based, Blautia producta; details: minimal medium containing 1% barley β-glucan
Description: The pBS423-ΔrepA- Δsbp was constructed by inserting 905 bp 5' and 1151 bp 3' flanking regions but lacking 1.2 kb core region of BpSBPMLG. It was inserted between Pst1 sites of the vector. GenScript Biotech (Singapore) PTE LTD carried out synthesis of the 2.2 kb flanking region and insertion into pBS423-ΔrepA. Competent cells of B. producta were prepared after inoculating 1 % primary culture into 300 ml GAM containing glucose (0.2%), sucrose (0.5 M), and glycine (1%). It was incubated until A600 reached 0.5-0.7 at 37 °C under anaerobic conditions. Afterward, cultures were transferred into 50 ml centrifuge tubes and centrifuged at 3000 × g for 20 min. The supernatant was discarded, and pellets were washed three times with washing solution (0.5 M sucrose and 10% glycerol) and stored at -80°C in aliquots of 50 µl.
The first cross-over event for knocking out was achieved by integrating 0.2 to 1 µg pBS423-ΔrepA- Δsbp in 50 µl competent cells of B. producta through electroporation using a condition of 25 µF, 2.0 kV, and 200 Ω. Gene Pulser Xcell (Bio-Rad Laboratories, Hercules, CA, USA) was used for this purpose. The treated cells were instantly mixed with 1 ml anaerobically pre-incubated GAM medium containing 0.2 % glucose, 0.5 M sucrose, 1 % glycine, 20 mM MgCl2.6H2O, and 2 mM CaCl2. […]

[2] = test system: proteome of B. producta; experiment: Proteomics of B. producta grown on barley β-glucan versus glucose; format: cell-based, Blautia producta ATCC 27340; details: barley β-glucan compared to glucose
Description: B. producta ATCC 27340 was anaerobically grown at 37 °C overnight, cells were collected by centrifugation (3000g at room temperature, RT) and washed thrice with 5 ml PBS. […] The strain was grown to the mid-late exponential phase ([…] ∼ 0.5-0.6) in two biological replicates. […] The lysate was centrifuged (15,000g, 15 min at 4 °C), and the supernatant was collected. Procedures for the precipitation of protein, trypsin digestion, and analysis of generated peptides have been mentioned in the Supplementary file. […] Protein quantities were then calculated using Bradford assay. […] Consequently, trypsin digestion of protein was attained by incubating the reaction at 37°C for 16 h using 5 μg trypsin (MS grade, Promega). The next day, the reaction was quenched by adding one volume of 2% (w/v) trifluoroacetic acid, and the obtained peptides were used for mass spectrometry. Analysis of peptides was carried out as reported by Singh et al. (83). Using the manufacturer's protocol, peptides from each replicate of B. producta ATCC 27340 were initially cleaned-up using Oasis HLB 1 cc Vac cartridges (Waters). The […] analysis of each sample was performed on a quadrupole-TOF hybrid mass spectrometer (TripleTOF 6600, SCIEX) coupled to an Eksigent Nano LC-425 system. […] method was created using 93 precursor isolation windows which were defined on the basis of precursor m/z frequencies in DDA run using the SWATH Variable Window Calculator (SCIEX), with a limitation window of 5 m/z. Analysis parameters were optimized before any sample was run. Nebulizer gas and curtain gas were maintained at 20 and 25 psi, respectively.

[3] = test system: β-glucan utilization locus of B. producta; experiment: RT-qPCR of β-glucan utilization locus genes; format: cell-based, Blautia producta ATCC 27340
Description: Changes in the transcript expression levels of the β-glucan utilization locus of B. producta were performed by RT-qPCR. B. producta was initially cultured in 5 ml of GAM for 24 h and cells were spun down by centrifugation and washed three times with sterile PBS. […] Immediately, 300 μl saturated phenol with citrate buffer (pH 4.3, […] Sigma Aldrich) was added, and the mixed solution was incubated at 60 °C for 5 min with mild shaking. After that, it was centrifuged at 15,000 g for 5 min, and the upper aqueous phase was transferred into a new Eppendorf tube. It was mixed with three volumes of chilled ethanol and incubated for 30 min at -80 °C. The precipitate was then collected by centrifugation at the same speed, the pellet was washed with 70% ethanol twice, and the final white residue was dissolved in 100 to 500 μl of distilled water. The concentration of total RNA was calculated by a spectrophotometer at 260 nm. If a residual amount of DNA was observed, DNase-1 treatment was also given, following the manufacturer's instructions (AMPD1, Sigma Aldrich). About 2 μg total RNA was immediately used for reverse transcription using AccuScript High Fidelity cDNA Synthesis Kit (Agilent). RT-qPCR was performed in a 96-well plate on a CFX96 qPCR system (BioRad) using SYBR Green Master (BioRad), using the primers mentioned in Table S2. The qPCR reactions were executed in 10 μl, consisting of 5 μl of SYBR green mix, 30 ng of cDNA, and one pmol of each primer of a gene of the locus or 16S rRNA (Table S2). […] The 2^ˆ-ΔΔCt method calculated the expression of each gene and normalized data to 16S rRNA transcript level. Finally, the expression level of each gene was calculated as fold change compared with cultures of a minimal medium containing 1% glucose. Three technical replicates were used for bar generation of each gene expression; each bar represents average values and error bars indicate the standard errors of three technical replicates.

[4] = 1% barley β-glucan compared to glucose

Substance: Barley β-glucan
- growth of B. producta ΔSBP compared to wild-type strain [1]: significant retardation in growth; also recorded: retarded growth
- abundance of Bp1313 [2]: approximately 5 fold
- abundance of Bp1314 [2]: ~16 fold
- expression of Bp1317 [2]: about 7 fold
- expression of Bp1318 [2]: about 7 fold
- up-regulation of Bp3738 (GH18) [2]: 5.1 fold
- up-regulation of Bp4420 (GH3) [2]: 3.4 fold
- up-regulation of Bp8539 (GH3) [2]: 12.4 fold
- upregulation of bp1313 expression [3, 4]: 5.2 fold
- upregulation of bp1314 expression [3, 4]: 3.9 fold
- upregulation of bp1316 expression ([3]; barley MLG versus glucose): 4.7 fold
- upregulation of bp1317 expression ([3]; barley MLG versus glucose): 5 fold
- upregulation of bp1318 expression ([3]; barley MLG versus glucose): 4.5 fold
- fold change in expression of transcriptional regulator bp1315 ([3]; barley β-glucan compared to glucose): 0.76 fold
